Experimental data taken from the supplement of paper PMC10307832.

Assays:
Assay in all cases: relative viability (nuclei count vs DMSO), 5 days (fraction); higher = more cells survive
[1] = tested on: SW 1573
Outline: (§1)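 A single step with final 0.05% Triton X-100, 1% formaldehyde and 1 ug/ml Hoechst fixed the cells and stained nuclei 5 days after treatment. Lung cancer cell lines in 1536-well plates had been treated by pin tool the day after seeding with one drug alone or a fixed anchor-drug dose plus five library-drug doses (not always all listed) in √10 steps, and nuclei were counted on 4× images. Relative viability is the ratio of nuclei in treated wells to nuclei in vehicle wells, taken as the median of duplicate plates.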

[2] = tested on: NCI-H1993
Outline: as §1

[3] = tested on: EMC-BAC-2
Outline: as §1

[4] = tested on: NCI-H2085
Outline: as §1

[5] = tested on: NCI-H647
Outline: as §1

[6] = tested on: SK-LU-1
Outline: as §1

[7] = tested on: NCI-H322M
Outline: as §1

[8] = tested on: BEN
Outline: as §1

[9] = tested on: NCI-H727
Outline: as §1

[10] = tested on: LXF-289
Outline: as §1

[11] = tested on: NCI-H1650
Outline: as §1

[12] = tested on: LCLC-97TM1
Outline: as §1

[13] = tested on: PC-14
Outline: as §1

[14] = tested on: HOP-62
Outline: as §1

[15] = tested on: NCI-H1915
Outline: as §1

[16] = tested on: NCI-H2009
Outline: as §1

[17] = tested on: NCI-H661
Outline: as §1

[18] = tested on: H3255
Outline: as §1

[19] = tested on: NCI-H1563
Outline: as §1

[20] = tested on: NCI-H2126
Outline: as §1

[21] = tested on: NCI-H2347
Outline: as §1

[22] = tested on: NCI-H2342
Outline: as §1

[23] = tested on: NCI-H2023
Outline: as §1

[24] = tested on: NCI-H358
Outline: as §1

C[C@@H]1CN(CC(=O)Nc2ccc3c(c2)Cc2cccc(-c4cc(=O)cc(N5CCOCC5)o4)c2S3)C[C@H](C)O1 + COc1cc2c(Oc3ccc(NC(=O)C4(C(=O)Nc5ccc(F)cc5)CC4)cc3F)ccnc2cc1OCCCN1CCOCC1 [Foretinib] (partner 0.25 µM)
relative viability ([1]; first compound 0.04 µM): 0.683
relative viability ([1]; first compound 0.1265 µM): 0.946
relative viability ([1]; first compound 0.4 µM): 0.936
relative viability ([1]; first compound 4 µM): 0.999
relative viability ([2]; first compound 0.04 µM): 0.811
relative viability ([2]; first compound 0.1265 µM): 0.711
relative viability ([2]; first compound 0.4 µM): 0.646
relative viability ([2]; first compound 4 µM): 0.707
relative viability ([3]; first compound 0.04 µM): 1.08
relative viability ([3]; first compound 0.1265 µM): 1.04
relative viability ([3]; first compound 0.4 µM): 0.998
relative viability ([3]; first compound 4 µM): 0.92
relative viability ([4]; first compound 0.04 µM): 1.15
relative viability ([4]; first compound 0.1265 µM): 0.83
relative viability ([4]; first compound 0.4 µM): 1.03
relative viability ([4]; first compound 4 µM): 0.745
relative viability ([5]; first compound 0.04 µM): 1.34
relative viability ([5]; first compound 0.1265 µM): 1.17
relative viability ([5]; first compound 0.4 µM): 1.2
relative viability ([5]; first compound 4 µM): 0.793
relative viability ([6]; first compound 0.04 µM): 0.813
relative viability ([6]; first compound 0.1265 µM): 0.831
relative viability ([6]; first compound 0.4 µM): 0.859
relative viability ([6]; first compound 4 µM): 0.565
relative viability ([7]; first compound 0.04 µM): 0.508
relative viability ([7]; first compound 0.1265 µM): 0.965
relative viability ([7]; first compound 0.4 µM): 0.979
relative viability ([7]; first compound 4 µM): 0.874
relative viability ([8]; first compound 0.04 µM): 0.615
relative viability ([8]; first compound 0.1265 µM): 0.552
relative viability ([8]; first compound 0.4 µM): 0.593
relative viability ([8]; first compound 4 µM): 0.623
relative viability ([9]; first compound 0.04 µM): 0.98
relative viability ([9]; first compound 0.1265 µM): 0.783
relative viability ([9]; first compound 0.4 µM): 0.826
relative viability ([9]; first compound 4 µM): 1
relative viability ([10]; first compound 0.04 µM): 0.993
relative viability ([10]; first compound 0.1265 µM): 1.01
relative viability ([10]; first compound 0.4 µM): 0.985
relative viability ([10]; first compound 4 µM): 0.936
relative viability ([11]; first compound 0.04 µM): 1.07
relative viability ([11]; first compound 0.1265 µM): 1.14
relative viability ([11]; first compound 0.4 µM): 1.04
relative viability ([11]; first compound 4 µM): 0.678
relative viability ([12]; first compound 0.04 µM): 0.902
relative viability ([12]; first compound 0.1265 µM): 0.862
relative viability ([12]; first compound 0.4 µM): 0.959
relative viability ([12]; first compound 4 µM): 0.969
relative viability ([13]; first compound 0.04 µM): 0.94
relative viability ([13]; first compound 0.1265 µM): 0.864
relative viability ([13]; first compound 0.4 µM): 0.968
relative viability ([13]; first compound 4 µM): 0.902
relative viability ([14]; first compound 0.04 µM): 0.924
relative viability ([14]; first compound 0.1265 µM): 1.08
relative viability ([14]; first compound 0.4 µM): 1.13
relative viability ([14]; first compound 4 µM): 0.9
relative viability ([15]; first compound 0.04 µM): 1.06
relative viability ([15]; first compound 0.1265 µM): 1.13
relative viability ([15]; first compound 0.4 µM): 1.03
relative viability ([15]; first compound 4 µM): 1.05
relative viability ([16]; first compound 0.04 µM): 1.35
relative viability ([16]; first compound 0.1265 µM): 1.18
relative viability ([16]; first compound 0.4 µM): 1.15
relative viability ([16]; first compound 4 µM): 0.967
relative viability ([17]; first compound 0.04 µM): 0.776
relative viability ([17]; first compound 0.1265 µM): 1.04
relative viability ([17]; first compound 0.4 µM): 0.953
relative viability ([17]; first compound 4 µM): 0.927
relative viability ([18]; first compound 0.04 µM): 1.02
relative viability ([18]; first compound 0.1265 µM): 0.837
relative viability ([18]; first compound 0.4 µM): 0.677
relative viability ([18]; first compound 4 µM): 0.783
relative viability ([19]; first compound 0.04 µM): 0.831
relative viability ([19]; first compound 0.1265 µM): 0.894
relative viability ([19]; first compound 0.4 µM): 0.908
relative viability ([19]; first compound 4 µM): 0.788
relative viability ([20]; first compound 0.04 µM): 1.17
relative viability ([20]; first compound 0.1265 µM): 1.12
relative viability ([20]; first compound 0.4 µM): 1.12
relative viability ([20]; first compound 4 µM): 1.02
relative viability ([21]; first compound 0.04 µM): 0.758
relative viability ([21]; first compound 0.1265 µM): 0.761
relative viability ([21]; first compound 0.4 µM): 1.04
relative viability ([21]; first compound 4 µM): 1.2
relative viability ([22]; first compound 0.04 µM): 0.959
relative viability ([22]; first compound 0.1265 µM): 0.95
relative viability ([22]; first compound 0.4 µM): 0.973
relative viability ([22]; first compound 4 µM): 0.908
relative viability ([23]; first compound 0.04 µM): 0.732
relative viability ([23]; first compound 0.1265 µM): 0.915
relative viability ([23]; first compound 0.4 µM): 0.731
relative viability ([23]; first compound 4 µM): 0.666
relative viability ([24]; first compound 0.04 µM): 0.547
relative viability ([24]; first compound 0.1265 µM): 0.677
relative viability ([24]; first compound 0.4 µM): 0.682
relative viability ([24]; first compound 4 µM): 0.4
